Measurements from patent US10899815B2, “Compositions and methods of using islet neogenesis peptides and analogs thereof” (SHENZHEN HIGHTIDE BIOPHARMACEUTICAL, LTD., priority 2013, dated 2021).
Ends that are not written are not given here.

Columns and labels:
[1] = Peptide stability in mouse plasma; format: in vitro ADME; conditions: 100 μg/mL, 37° C., LC-MS/MS, FIG. 3 and FIG. 5
Procedure: The stability of peptides was also tested in mouse and human plasma. Briefly, a certain amount of peptides and eucatropine powder (positive control) was accurately weighed. Test compounds were dissolved in 50% methanol-water solution and diluted to 20 mg/mL, and eucatropine was dissolved in dimethylsulfoxide (DMSO) and diluted to 10 mM, as a stock solution. Eucatropine stock solution was diluted to 0.2 mM with DMSO as a working solution. A stop reagent was prepared containing 200 ng/mL midazolam and tolbutamide in acetonitrile. A volume of 300 μL of stop solution was added to each well of a 96-well deep-well plate placed on ice beforehand.
For the stability studies, peptides and eucatropine were spiked into plasma respectively, mixed well, and then 100 μL of each mixture solution was transferred into the pre-cooled stop reagent as 0 time point sample. The remaining mixtures were incubated in a 37° C. water bath with shaking at 100 rpm (n=2). The final incubation concentration was 1 μM for eucatropine and 100 μg/mL for all test compounds.
At desired time points, 100 μl, of incubation mixture was transferred to the stop reagent to precipitate proteins. Samples were vortexed and centrifuged at RCF 5000-g for 10 minutes, and supernatant was transferred to a test plate. The samples were analyzed by LC-MS/MS.
Slope was calculated by plotting the natural logarithm of the percentage or remaining amount of test compounds and time, and T12 was calculated in accordance with the following formula.
For stability in mouse plasma, the incubation time was 0, 5, 15, 30 and 60 min for Peptide 1 and eucatropine, 0, 15, 30, 60, 120, 240 and 480 min for Peptide 12, Peptide 16 and Peptide 29.
In another stability study in mouse plasma, the incubation time was 0, 30, 60 and 120 min for Peptide 2 and eucatropine; 0, 30, 60, 120, 240 and 960 min for Peptide 52 and Peptide 54.

Pharmacokinetics in rat = format: in vivo, Sprague-Dawley (SD) rats; conditions: rat, in vivo, 25 mg/kg
Procedure: After 7 days acclimation, male Sprague-Dawley (SD) rats weighing 210-250 g, or male C57BL/6 mice, weighing 19-24 g, in good health were used in the study. Peptide 1, Peptide 12 and Peptide 16 were dissolved in sterile normal saline and then they were injected via subcutaneous (sc) bolus or intravenous (iv) bolus at the dose level of 25 mg/kg. Three animals in each group were used for blood collection at the time point of 5 min, 15 min, 30 min, 1 h, 2 h, 4 h, 6 h, 8 h and 24 h post-dose. Blood samples (approximately 400 μL) were collected and placed into tubes containing EDTA-K2 and centrifuged at 8000 rpm for 6 minutes at 4° C. to separate plasma front the samples. The resulting plasma was stored frozen at −80° C. until being analyzed. Plasma concentrations of peptides were determined using tandem mass spectrometry (LC-MS/MS) analysis. A non-compartmental module of WinNonlin® Professional 5.2 (Pharsight; St. Louis, Mo.), was used to calculate PK parameters. The abbreviation AUC(0-t) represents area under the curve front the time of dosing to the time of the last observation, the AUC(0-∞) represents area under the curve from the time of dosing to infinity, and the Cmax represents maximum concentration detected.

pancreatic islets = assay: Glucose-stimulated insulin secretion (GSIS) of isolated islets; format: cell-based, Sprague-Dawley (SD) rats; conditions: rat islets, 12.0 mM glucose, 10 μg/mL peptide (GLP-1 100 nM), 60 min, FIG. 8
Procedure: The pancreases were procured from male adult Sprague-Dawley (SD) rats. After 7 days acclimation, the animals were sacrificed by cervical dislocation and the entire pancreas was removed and digested with collagenase to isolate islets. After digestion, islets were maintained at 37° C. in RPMI 1640 (Carlsbad, Calif., USA) pH 7.4, containing 10% (v/v) fetal calf serum, 1% penicillin/streptomycin, and 10 mM glucose in a humid atmosphere (5% CO2/95% O2), without the addition of any compound (control), or with the addition of 100 nM glucagon like peptide-1 (GLP-1); or 10 μg/mL Peptide 1, Peptide 12, or Peptide 16, as summarized in Table 4 below. Cultured islets were rinsed in Krebs-Ringer bicarbonate buffer (KRB), pH 7.4, previously gassed with a mixture CO2/O2 (5/95%), and pre-incubated in 1.0 ml KRB containing 0.5% (w/v) BSA and 1.5 mM glucose at 37° C. for 45 min. After this period, groups of 5 islets were incubated in 0.6 ml KRB with the addition of 1.5 or 12.0 mM glucose, with or without the addition of peptides for 60 min. At the end of the incubation period, aliquots of the medium were collected for insulin quantitation.

[2] = Peptide stability in culture medium; format: physicochemical; conditions: F-12K medium, 0.25 mg/mL, 37° C., 0-72 hours, HPLC, FIG. 2
Procedure: To determine the stability of peptides in culture medium, a certain amount of selected peptides was accurately weighed and dissolved in distilled water to 5 mg/mL as a stock solution. The stock solution was diluted to 0.25 mg/mL with F-12K medium (Gibco-BRL, Gaithersburg, Md., USA) as working solution. A volume of 100 μL of each working solution was transferred into individual sample vials. The sample vials were incubated in a 37° C. incubator for 0, 24, 48 and 72 hours before being analyzed and quantitated by HPLC.

ARIP cells = assay: ARIP cell proliferation (BrdU ELISA / CellTiter-Glo); format: cell-based, rat; conditions: 100 nM peptide, FIG. 1
Procedure: To measure cell proliferation, a bromodeoxyuridine (BrdU) ELISA assay was performed. Briefly, ARIP cells (ATCC (American Type Culture Collection), Manassas, Va. USA), a rat pancreatic ductal cell line, were cultured in F-12K medium (Gibco-BRL, Gaithersburg, Md., USA) containing 10% fetal bovine serum (FBS; HyClone, Thermo Fisher Scientific Inc.; Waltham, Mass. USA), 100 μg/ml streptomycin and 100 μg/ml penicillin in a cell incubator. ARIP cells were seeded into 96-well culture plates at 8000 or 0 (as blank control) cells/well in a volume of 50 μl cell culture medium and incubated overnight for the following experiments. On the second day, after replacing the medium with medium without serum, 50 μl serum-free cell culture medium containing test peptides at a series concentrations (final concentrations were 10 μM, 5 μM, 1 μM, 500 nM, 100 nM, 50 nM, 10 nM and 1 nM) were added to seeded cells. Medium without compound was added to negative control and background control wells. […] The absorbance at 450 nm (reference wavelength 690 nm) on an EnVision™ plate reader (Perkin Elmer, Boston, Mass.) within 5 min. after adding the stop solution was measured.
To test for cell viability, a CellTiter-Glo™ (CTG) assay (Promega, Madison, Wis.) was performed. […] Luminescence signal was quantified on an EnVision™ plate reader after a 10 minute incubation at room temperature.

normal C57BL/6J mice = assay: Induction of small β-cell clusters in normal mice; format: in vivo; conditions: for number of islets, islet size ranging from 2.1 to 0.7: normal female C57BL/6J mice, 25 mg/kg per day for 10 days, islet size as Log [μm^2], FIG. 7; for body weight, blood glucose, plasma insulin, pancreas insulin, or pancreas weight: compared to saline group
Procedure: After a 1-week acclimation, C57BL/6J female mice were randomly divided into 4 groups. The two control groups received either 10 mL/kg sterile normal saline (n=4) or scrambled peptide (Peptide 3, 25 mg/kg) (n=5) via subcutaneous injection for 10 days. The other two groups received INGAP-PP (Peptide 1) or INGAP-PP analog Peptide 7 at a dose of 25 mg/kg per day respectively (n=7 per group) for the same period. Body weight and 6 hour fasting blood glucose were measured before treatment and after the last dosing of treatment. Plasma and pancreatic insulin were also measured at the end of the study. On day 11, the pancreas was removed from each animal, cleared of fat and lymph nodes, weighed, and fixed in 10% neutral buffered formalin (NBF) for no longer than 24 hours before processing for morphometric analysis.
Immunohistochemistry analysis was used to determine pancreatic islet size distribution.

[3] = test system: STZ induced diabetic mice model; assay: Efficacy in streptozotocin (STZ) induced diabetic mice model; format: in vivo, C57BL/6J mice; conditions: for body weight or pancreas weight: 5 mg/kg or 25 mg/kg for 20 days
Procedure: After acclimatization in the animal facility for one week, 6-8 weeks old C57BL/6J mice were administered low dose STZ at 40 mg/kg in citrate buffer for 5 consecutive days to establish a TID animal model. Mice with blood glucose greater than 16.7 mmol/L at 5 days post last STZ injection were included in the study. These mice were then treated with INGAP-PP (Peptide 1) or Peptide 7 at the closes of 5 mg/kg (2.5 mg/kg, bid (twice a day)) or 25 mg/kg (12.5 mg/kg, bid) for 20 days before sacrifices. Two additional groups of diabetic mice were administered either saline or a peptide (Peptide 3) composed of a scrambled sequence of amino acids from Peptide 1 as control groups. Blood glucose and insulin levels were measured, and 20 days post the last dosing of test agents, an oral glucose tolerance test (OGTT) was performed in 6 hour fasted animals to determine the effect of Peptide 1 and Peptide 7. Blood samples obtained from the tail cut for glucose determination were detected with an ACCU-CHEK™ glucometer (Roche, ACCU-CHEK® Active), and insulin levels were determined with Rat/Mouse Insulin Elisa kit (Millipore, Billerica, Mass. USA). For the OGTT, after the measurement of the basal glucose concentration (T=−30 min), mice received an oral glucose challenge at 2 g/kg and glucose values were determined by glucometer at 0, 15, 30, 60, 90 and 120 min.

[4] = normal mice, 25 mg/kg sc for 10 days

For “Ac-IGLHDPSHGTLPAGS-NH2 [Peptide 29, Ac-IGLHDPSHGTLPAGS-NH2]”, the “stability in mouse plasma” value [1] was “good stability in mouse plasma and were more stable than INGAP-PP”.

With “Ac-IGLHDPSHGTLPAGS-OH [Peptide 12, Ac-IGLHDPSHGTLPAGS-OH]” the “PK properties (AUC and Cmax) compared to INGAP-PP” value (Pharmacokinetics in rat) was “marked improved PK properties” and the “glucose-stimulated insulin secretion versus islets without peptides” value (pancreatic islets) was “released significantly more insulin”.

With “Ac-IGLHDPTQGTEPAGE-OH [Peptide 52, Ac-IGLHDPTQGTEPAGE-OH]” the “stability in mouse plasma” value [1] was “good stability in mouse plasma and were significantly more stable than HIP”.

For “Ac-IGLHDPTQGTEPNGE-OH [Peptide 54, Ac-IGLHDPTQGTEPNGE-OH]”, the “stability in mouse plasma” value [1] was “good stability in mouse plasma and were significantly more stable than HIP”.

For “GLP-1: Glucagon like peptide-1, positive control at 100 nM in GSIS (HAEGTFTSDVSSYLEGQAAKEFIAWLVKGR; ends and bridges not checked; UniProt P01275 98-127, looked up) [reference compound]”, the “glucose-stimulated insulin secretion versus islets without peptides” value (pancreatic islets) was “released significantly more insulin”.

In the case of H-IGLHAPSHGTLPAGS-OH [Peptide 8], the “stability in culture medium” value [2] is reported as “significantly more stable than INGAP-PP peptide”.

With “H-IGLHDPSHGTLPAGS-OH [Peptide 7, H-IGLHDPSHGTLPAGS-OH]” the “percentage increase in cell number” value (ARIP cells) was “significantly higher percentage increase in cell number”, the “number of islets, islet size ranging from 2.1 to 0.7” value (normal C57BL/6J mice) was “increased significantly” and the “body weight, blood glucose, plasma insulin, pancreas insulin, or pancreas weight” value (shortened to “body weight, blood glucose”) (normal C57BL/6J mice; [4]) was “did not affect”. For the same substance, the “body weight or pancreas weight” value [3] was “did not affect”, the plasma insulin levels ([3]; 25 mg/kg dose group, end of 20-day period, FIG. 6B) was “significantly different from saline controls and almost restored to the level of the naive group” and the “glucose tolerance (OGTT)” value ([3]; OGTT 2 g/kg glucose, day 21, FIG. 6C) was “improved glucose tolerance”. The “stability in culture medium” value [2] was “significantly more stable than INGAP-PP peptide”.

In the case of “H-IGLHDPSHGTLPNGS-OH [Peptide 1, H-IGLHDPSHGTLPNGS-OH, reference compound]”, the “number of islets, islet size ranging from 2.1 to 0.7” value (normal C57BL/6J mice) is reported as “only observed in islet size of 2.1”, the “body weight, blood glucose” value (normal C57BL/6J mice; [4]) is reported as “did not affect” and the “body weight or pancreas weight” value [3] is reported as “did not affect”. For the same substance, the “glucose-stimulated insulin secretion versus islets without peptides” value (pancreatic islets) was “no stimulation”.

In the case of “H-SHPNGSGTIGLHDPL-OH [Peptide 3, H-SHPNG SGTIG LHDPL-OH]”, the “all parameters measured, versus normal saline” value (normal C57BL/6J mice; [4]) is reported as “no difference” and the “body weight, blood glucose” value (normal C57BL/6J mice; [4]) is reported as “did not affect”.
